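48-hour exposure; five concentrations; linearly interpolated endpoints. Abbreviation: GI50, concentration required for 50% inhibition of growth. The concentration for full growth arrest is given as TGI.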
Legend:
Assay in all cases: NCI tumour cell line growth inhibition, 48 h
HT29 colon = tested on: HT29 colon
EKVX NSCLC = tested on: EKVX NSCLC
SF-539 CNS = tested on: SF-539 CNS
OVCAR-4 ovarian = tested on: OVCAR-4 ovarian
OVCAR-8 ovarian = tested on: OVCAR-8 ovarian
NCI-H460 lung = tested on: NCI-H460 lung
RXF 393 renal = tested on: RXF 393 renal
SR leukemia = tested on: SR leukemia
SK-MEL-2 melanoma = tested on: SK-MEL-2 melanoma
TK-10 renal = tested on: TK-10 renal

| SMILES | TGI (HT29 colon) [µM] | TGI (EKVX NSCLC) [µM] | TGI (SF-539 CNS) [µM] | TGI (OVCAR-4 ovarian) [µM] | TGI (OVCAR-8 ovarian) [µM] | TGI (NCI-H460 lung) [µM] | TGI (RXF 393 renal) [µM] | TGI (SR leukemia) [µM] | TGI (SK-MEL-2 melanoma) [µM] | TGI (TK-10 renal) [µM] | GI50 (HT29 colon) [µM] | GI50 (EKVX NSCLC) [µM] | GI50 (SF-539 CNS) [µM] | GI50 (OVCAR-4 ovarian) [µM] | GI50 (OVCAR-8 ovarian) [µM] | GI50 (NCI-H460 lung) [µM] | GI50 (RXF 393 renal) [µM] | GI50 (SR leukemia) [µM] | GI50 (SK-MEL-2 melanoma) [µM] | GI50 (TK-10 renal) [µM] |
| --- | --- | --- | --- | --- | --- | --- | --- | --- | --- | --- | --- | --- | --- | --- | --- | --- | --- | --- | --- | --- |
| CCCc1nc(Cl)nc(Cl)c1Cl | 1.56 | 2.63 | 2.94 | 0.289 | 0.637 | 5.66 | 0.798 | 0.529 | 2.07 | 4.71 |  |  |  |  |  |  |  |  |  |  |
| CCOC(=O)c1sc(-c2ccc(OS(=O)(=O)C[C@]34CCC(CC3=O)C4(C)C)c(C=O)c2)nc1C | 3.34 | > 50 | 1.85 | > 50 | > 50 | 3.24 | 2.75 | 3.27 | 2.69 | 4.48 | 1.23 | 1.3 | 0.908 | 1.49 | 1.53 | 1.03 | 0.943 | 0.66 | 1.13 | 0.721 |
| COc1ccc(O)c(C(=O)CCC(=O)O)c1 | > 100 | > 100 | > 100 | > 100 | > 100 | > 100 | > 100 | > 100 | > 100 | > 100 |  |  |  |  |  |  |  |  |  |  |
| COC/N=C(\NC#N)NCOC | > 100 | > 100 | > 100 | > 100 | > 100 | > 100 | > 63.3 | 54.6 | > 100 | > 100 |  |  |  |  |  |  |  |  |  |  |
| C=CC(C)(C)n1cc(C2=C(O)C(=O)C(c3cn(C(C)(C)C=C)c4ccccc34)=C(O)C2=O)c2ccccc21 | 16.2 | 14 | 4.11 | 6.92 | 13.6 | 12.6 | 3.87 | > 45 | 4.22 | 10.9 |  |  |  |  |  |  |  |  |  |  |
| Clc1ccc(/C=C/c2ccc3ccccc3n2)cc1 | 8.8 | > 100 | 13.8 | > 100 | > 100 | 15.7 | > 74.7 | 4.12 | 1.24 | > 100 | 2.62 | 2.79 | 0.428 | > 69.8 | 1.06 | 1.2 | 0.648 | 0.443 | 0.311 | 5.24 |
| C=C1C(=O)O[C@H]2[C@H]1CC/C(Cn1cc(-c3ccc(N)cc3)nn1)=C\CC[C@@]1(C)O[C@@H]21 | 5.47 | 18.5 | 8.75 | 18.6 | 12.4 | 29.7 | 3.02 | > 100 | 28.9 | 5.43 | 2.14 | 3.89 | 2.77 | 4.9 | 3.04 | 10.4 | 1.41 | 0.702 | 10.6 | 2.25 |
| Cn1cc(-c2cc(-c3cn(C)c4ccc(Cl)cc34)[nH]n2)c2cc(Cl)ccc21 | 18.1 | 15 | 3.46 | 28.4 | 19.8 | 5.47 | 16.2 | 7.71 | 6.13 | 23.7 | 3.57 | 3.15 | 1.81 | 5.82 | 4.03 | 2.35 | 3.03 | 2.36 | 2.34 | 5.16 |
| FC(F)(F)c1ccc(-c2nn3ncccc3c2-c2ccnc(Nc3ccc4c(c3)OCCO4)n2)cc1 | > 25 | > 25 | > 25 | > 25 | > 25 | > 25 | > 17 | > 25 | > 25 | > 25 | 6.03 | 4.02 | > 19.7 | 10.2 | 13.2 | 11.9 | 4.4 | > 25 | 11.6 | 10.1 |
| CC(NC(=O)Cc1ccc(C(F)(F)P(=O)(OCc2ccc([N+](=O)[O-])o2)N(C)CCCCCl)cc1)c1ccc(OCC2CCCCC2)c(C(N)=O)c1 (stereo not given) | 21.2 | 16.7 | 13.4 | 12 | 41.9 | 26.2 | 9.97 | 5.03 | > 48.5 | 22.2 | 5.8 | 4.92 | 6.33 | 3.33 | 12.1 | 8.26 | 4.36 | 1.76 | 6.48 | 8.01 |
| CCCCCCCCCc1ccc(OCCOCCOCCOCCOCCOCCOCCOCCOCCO)cc1 | 1.98 | 5.78 | 2.67 | 5.04 | 2.71 | 1.65 | 3.37 | 1.91 | 1.96 | 1.93 | 0.685 | 0.452 | 0.949 | 0.131 | 0.231 | 0.301 | 1.03 | 0.437 | 0.876 | 0.745 |
| Cc1cc(CCl)c(C)cc1CCl | 3.68 | 5.49 | 4.26 | 12.8 | 17.4 | 1.43 | 8.72 | 8.83 | 13.3 | 5.05 | 1.44 | 2.08 | 1.02 | 3.4 | 3.21 | 0.12 | 2.93 | 0.114 | 3.27 | 1.97 |
| CCn1cc(/C=C2\Oc3cc(OCC#N)ccc3C2=O)c2cc(OC)ccc21 | > 100 | > 100 | 0.818 | > 100 | > 100 | > 100 | 0.614 | > 100 | > 68.5 | > 64.1 | 0.134 | 1.44 | 0.113 | 11.2 | 0.53 | 0.347 | 0.152 | 0.102 | 0.807 | 18.1 |
| Cc1ccc(S(=O)(=O)c2nc(-c3ccccc3)oc2S(C)(=O)=O)cc1 | 6.6 | 19.3 | 3.02 | 3.72 | 3.8 | 27.8 | 3.13 | 7.69 | 14.1 | 3.1 | 2.81 | 6.08 | 1.56 | 1.92 | 1.96 | 13.3 | 1.69 | 2 | 3.4 | 1.7 |

Source: PubChem BioAssay (NCI)
